Measured values from patent US9388179B2, “N-substituted indazole sulfonamide compounds with selective activity in voltage-gated sodium channels” (Merck Sharp & Dohme Corp., priority 2012, dated 2016).

Assays:
Format in all cases: cell-based
[1] = biological target: T1, human Nav1.5 channels stably expressed in HEK 293 cells (Homo sapiens, UniProt Q14524); assay: PatchXpress 7000 automated patch-clamp, inactivated state block; settings: PatchXpress technique
T1 construct: expressed in transfected cells; host or cells: HEK 293
T1 sequence (Q14524 whole entry): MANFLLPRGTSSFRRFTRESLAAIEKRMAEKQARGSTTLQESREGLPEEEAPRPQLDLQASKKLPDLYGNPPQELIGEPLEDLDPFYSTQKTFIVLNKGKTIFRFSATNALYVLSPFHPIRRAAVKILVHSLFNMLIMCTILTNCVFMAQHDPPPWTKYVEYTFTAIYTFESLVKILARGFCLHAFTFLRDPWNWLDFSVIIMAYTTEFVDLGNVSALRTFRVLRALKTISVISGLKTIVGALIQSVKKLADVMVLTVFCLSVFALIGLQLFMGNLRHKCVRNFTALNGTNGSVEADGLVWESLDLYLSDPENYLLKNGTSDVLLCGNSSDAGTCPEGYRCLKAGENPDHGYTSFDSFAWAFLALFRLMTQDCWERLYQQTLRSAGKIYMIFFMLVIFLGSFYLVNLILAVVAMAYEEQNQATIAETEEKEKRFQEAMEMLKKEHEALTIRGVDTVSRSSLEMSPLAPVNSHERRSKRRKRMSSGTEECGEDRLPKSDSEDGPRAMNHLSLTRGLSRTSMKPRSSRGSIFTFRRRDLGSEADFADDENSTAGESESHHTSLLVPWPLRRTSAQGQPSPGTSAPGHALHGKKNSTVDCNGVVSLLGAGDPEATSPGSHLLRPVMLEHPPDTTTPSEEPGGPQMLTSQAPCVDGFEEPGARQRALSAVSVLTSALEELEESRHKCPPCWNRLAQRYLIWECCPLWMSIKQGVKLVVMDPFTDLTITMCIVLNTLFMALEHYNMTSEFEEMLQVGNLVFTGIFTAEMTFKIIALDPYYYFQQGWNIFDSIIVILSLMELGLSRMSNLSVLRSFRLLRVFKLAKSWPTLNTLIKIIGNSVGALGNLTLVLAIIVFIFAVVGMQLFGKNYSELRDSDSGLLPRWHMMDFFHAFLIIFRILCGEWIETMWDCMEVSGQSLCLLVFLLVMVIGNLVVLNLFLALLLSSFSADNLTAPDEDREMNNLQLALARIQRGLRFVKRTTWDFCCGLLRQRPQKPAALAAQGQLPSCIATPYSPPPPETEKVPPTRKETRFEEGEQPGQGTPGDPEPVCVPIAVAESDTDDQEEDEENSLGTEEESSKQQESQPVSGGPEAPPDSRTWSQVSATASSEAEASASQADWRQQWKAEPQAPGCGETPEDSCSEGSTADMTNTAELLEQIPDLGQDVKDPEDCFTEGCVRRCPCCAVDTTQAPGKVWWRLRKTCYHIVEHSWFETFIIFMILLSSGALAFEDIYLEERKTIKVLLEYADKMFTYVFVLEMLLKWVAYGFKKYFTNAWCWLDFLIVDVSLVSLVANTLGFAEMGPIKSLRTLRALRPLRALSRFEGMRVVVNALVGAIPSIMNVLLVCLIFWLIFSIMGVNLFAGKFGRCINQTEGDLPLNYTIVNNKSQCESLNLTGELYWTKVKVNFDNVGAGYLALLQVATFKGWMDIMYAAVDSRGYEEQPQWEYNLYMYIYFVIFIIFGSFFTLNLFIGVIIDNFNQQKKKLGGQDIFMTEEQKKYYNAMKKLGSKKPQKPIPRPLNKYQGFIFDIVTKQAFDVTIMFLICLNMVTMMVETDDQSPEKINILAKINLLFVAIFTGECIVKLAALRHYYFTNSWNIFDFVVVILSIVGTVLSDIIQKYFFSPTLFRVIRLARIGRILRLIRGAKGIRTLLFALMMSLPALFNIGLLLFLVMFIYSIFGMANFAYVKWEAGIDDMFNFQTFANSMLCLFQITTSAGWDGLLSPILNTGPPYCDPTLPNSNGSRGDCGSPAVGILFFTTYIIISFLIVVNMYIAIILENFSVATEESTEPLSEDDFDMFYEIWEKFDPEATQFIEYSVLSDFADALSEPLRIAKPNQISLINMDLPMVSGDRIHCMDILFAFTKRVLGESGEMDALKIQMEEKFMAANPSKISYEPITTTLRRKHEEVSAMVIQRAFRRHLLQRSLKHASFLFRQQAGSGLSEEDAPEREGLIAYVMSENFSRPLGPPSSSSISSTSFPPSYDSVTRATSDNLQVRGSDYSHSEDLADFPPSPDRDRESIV
Experimental: (§1) For all electrophysiology experiments, offline analysis was used to correct for current rundown and to determine percent inhibition as a function of drug concentration. IC50 values were determined by fitting to the Hill equation.
(§2) Sodium Current Measurements on the PatchXpress 7000®:
(§3) To measure inactivated state block of sodium channels, test compounds were characterized in an automated PatchXpress® assay (Molecular Devices) using a double-pulse protocol on human Nav1.7 and Nav1.5 channels stably expressed in HEK 293 cells. Cells were held at a potential 20 mV negative to V0.5 inact. An 8000 ms pre-pulse 7 mV positive to V0.5 inact was given followed by a hyperpolarizing 2 ms pulse to −120 mV and a 20 ms test pulse to −20 mV. Protocol was applied to cells in the absence, presence of compound and after washout. The temperature of PatchXpress instruments was maintained at 22° C. The following recording solutions were used. Internal solution (mM): 30 CsCl, 5 HEPES, 10 EGTA, 120 CsF, 5 NaF, 2 MgCl2. External solution (mM): 120 NMDG, 40 NaCl, 1 KCl, 0.5 MgCl2, 5 HEPES, 2.7 CaCl2.

[2] = biological target: T2, human Nav1.7 channels stably expressed in HEK 293 cells (Homo sapiens, UniProt Q15858); assay: as above; settings: PatchXpress technique; read-out: Nav 1.7 potency
T2 construct: expressed in transfected cells; host or cells: HEK 293
T2 sequence (Q15858 whole entry): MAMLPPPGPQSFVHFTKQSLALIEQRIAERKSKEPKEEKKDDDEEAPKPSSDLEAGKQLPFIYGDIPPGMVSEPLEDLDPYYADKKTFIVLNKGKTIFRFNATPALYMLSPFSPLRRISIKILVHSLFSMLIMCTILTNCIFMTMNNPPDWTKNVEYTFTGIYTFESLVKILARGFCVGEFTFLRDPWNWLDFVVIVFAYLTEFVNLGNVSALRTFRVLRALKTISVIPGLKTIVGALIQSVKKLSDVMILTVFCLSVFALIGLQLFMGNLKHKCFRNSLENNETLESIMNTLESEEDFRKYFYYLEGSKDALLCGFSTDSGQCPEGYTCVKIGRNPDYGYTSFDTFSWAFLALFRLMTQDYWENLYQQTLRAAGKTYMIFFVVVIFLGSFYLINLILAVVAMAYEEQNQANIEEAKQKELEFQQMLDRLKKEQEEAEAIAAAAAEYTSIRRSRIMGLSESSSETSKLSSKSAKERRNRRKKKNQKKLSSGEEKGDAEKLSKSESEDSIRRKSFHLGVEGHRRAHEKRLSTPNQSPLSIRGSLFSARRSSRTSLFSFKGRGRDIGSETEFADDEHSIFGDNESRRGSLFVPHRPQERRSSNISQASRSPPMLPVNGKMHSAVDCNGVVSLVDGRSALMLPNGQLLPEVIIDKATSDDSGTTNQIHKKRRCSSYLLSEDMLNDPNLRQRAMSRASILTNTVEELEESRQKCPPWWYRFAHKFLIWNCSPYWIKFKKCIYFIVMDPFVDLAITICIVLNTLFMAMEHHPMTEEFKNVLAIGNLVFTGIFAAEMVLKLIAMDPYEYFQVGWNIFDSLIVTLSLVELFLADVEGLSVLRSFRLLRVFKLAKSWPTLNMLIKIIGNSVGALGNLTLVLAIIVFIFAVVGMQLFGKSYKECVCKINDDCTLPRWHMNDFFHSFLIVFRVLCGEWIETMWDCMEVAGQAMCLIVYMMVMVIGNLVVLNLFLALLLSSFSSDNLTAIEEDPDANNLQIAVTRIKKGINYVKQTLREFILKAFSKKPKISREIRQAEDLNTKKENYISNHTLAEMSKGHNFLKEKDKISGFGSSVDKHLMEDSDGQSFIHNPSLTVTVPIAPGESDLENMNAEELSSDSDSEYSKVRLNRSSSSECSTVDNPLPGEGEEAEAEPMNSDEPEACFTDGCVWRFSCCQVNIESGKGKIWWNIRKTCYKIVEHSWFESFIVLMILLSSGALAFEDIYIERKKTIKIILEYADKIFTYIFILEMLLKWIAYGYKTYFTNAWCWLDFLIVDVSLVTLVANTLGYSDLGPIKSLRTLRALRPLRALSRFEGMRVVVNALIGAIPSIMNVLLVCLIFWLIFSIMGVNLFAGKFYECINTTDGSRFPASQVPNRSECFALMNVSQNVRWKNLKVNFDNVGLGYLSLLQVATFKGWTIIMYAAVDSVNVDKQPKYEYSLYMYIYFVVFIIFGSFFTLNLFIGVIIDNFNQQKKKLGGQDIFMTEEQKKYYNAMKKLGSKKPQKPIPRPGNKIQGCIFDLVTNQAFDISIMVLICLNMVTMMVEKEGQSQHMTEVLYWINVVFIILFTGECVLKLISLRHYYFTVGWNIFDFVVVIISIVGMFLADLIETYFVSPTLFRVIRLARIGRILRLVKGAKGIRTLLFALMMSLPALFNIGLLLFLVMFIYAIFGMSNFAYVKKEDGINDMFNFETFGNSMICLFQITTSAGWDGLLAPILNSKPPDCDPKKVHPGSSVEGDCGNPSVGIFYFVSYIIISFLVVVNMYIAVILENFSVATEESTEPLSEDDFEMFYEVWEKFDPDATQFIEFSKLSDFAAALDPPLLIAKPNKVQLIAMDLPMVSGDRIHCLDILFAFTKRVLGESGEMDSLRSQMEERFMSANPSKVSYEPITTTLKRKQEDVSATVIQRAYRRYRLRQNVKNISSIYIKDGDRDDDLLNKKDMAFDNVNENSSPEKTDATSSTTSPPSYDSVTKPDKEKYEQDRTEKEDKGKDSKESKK
Experimental: as §1, §2, §3

[3] = biological target: T1, human Nav1.5 channels stably expressed in HEK 293 cells; assay: IonWorks Quattro automated patch-clamp, inactivated state block; settings: IonWorks technique
Experimental: as §1
(§4) Cell Based Assays for Nav 1.7 and Nav 1.5 Activity
(§5) Compounds were tested on human Nav1.7 and Nav1.5 channels stably expressed in HEK 293 cells. […] Cells were sealed on a planar substrate using the Population Patch […] (PPC) technology. Electrical access was obtained using both nystatin and amphotericin. A double-pulse protocol was used for the determination of IC50 values for inactivated state block. Nav1.7 and Nav1.5 expressing cells were voltage clamped at −100 mV and −110 mV, respectively. A depolarizing prepulse to −10 mV (Nav1.7) or −30 mV (Nav1.5) for 1000 ms followed by a 10 ms repolarization to −100 mV (Nav1.7) or −110 mV (Nav1.5) was given to generate fractional channel inactivation of 50%, followed by a 10 ms test pulse to −10 mV (Nav1.7) or −30 mV (Nav1.5) to measure peak current in control conditions and after compound addition. The following recording solutions were used (mM). External: 150 NaCl, 2 CaCl2, 5 KCl, 1 MgCl2, 10 HEPES, 12 Dextrose; internal: 120 CsF, 30 CsCl, 10 EGTA, 5 HEPES, 5 NaF, 2 MgCl2.

[4] = biological target: T2, human Nav1.7 channels stably expressed in HEK 293 cells; assay: as above; settings: IonWorks technique; read-out: Nav 1.7 potency
Experimental: as §1, §4, §5

| Compound | Ratio 1.5:1.7 = Nav 1.5 potency (nM)/Nav1.7 potency (nM) [1] | IC50 [2] [nM] | Ratio 1.5:1.7 = Nav 1.5 potency (nM)/Nav1.7 potency (nM) [3] | IC50 [4] [nM] |
| --- | --- | --- | --- | --- |
| O=S(=O)(Nc1ncns1)c1ccc2c(cnn2Cc2ccc(Cl)cc2C2=CCNCCC2)c1 [Ex-17, 1-[4-chloro-2-(2,5,6,7-tetrahydro-1H-azepin-4-yl)benzyl]-N-1,2,4-thiadiazol-5-yl-1H-indazole-5-sulfonamide] | 7 | 4470 | 59 | 559 |
| O=S(=O)(Nc1ncns1)c1ccc2c(cnn2Cc2ccccc2C2=CCNCCC2)c1 [Ex-23, 1-[2-(2,5,6,7-tetrahydro-1H-azepin-4-yl)benzyl]-N-1,2,4-thiadiazol-5-yl-1H-indazole-5-sulfonamide] | > 7 | 4470 | 19 | 1700 |
| O=S(=O)(Nc1ncns1)c1cc2cnn(Cc3cccc4c3CNCC4)c2cc1F [Ex-1, 6-fluoro-1-((1,2,3,4-tetrahydroisoquinolin-8-yl)methyl)-N-(1,2,4-thiadiazol-5-yl)-1H-indazole-5-sulfonamide] | 310 | 153 | 311 | 106 |
| O=S(=O)(Nc1ncns1)c1ccc2c(cnn2Cc2ccccc2-c2cccc3c2CCNC3)c1 [Ex-22, 1-[2-(1,2,3,4-tetrahydroisoquinolin-5-yl)benzyl]-N-1,2,4-thiadiazol-5-yl-1H-indazole-5-sulfonamide] | > 10 | 2900 | 23 | 1460 |
| CN(C)CCNC(=O)c1cccc(-c2cc(Cl)ccc2Cn2ncc3cc(S(=O)(=O)Nc4ncns4)ccc32)c1 [Ex-20, 5′-chloro-N-[2-(dimethylamino)ethyl]-2′-{[5-(1,2,4-thiadiazol-5-ylsulfamoyl)-1H-indazol-1-yl]methyl}biphenyl-3-carboxamide] | – | – | 34 | 960 |
| O=S(=O)(Nc1ncns1)c1ccc2c(cnn2Cc2ccccc2)c1 [Ex-19, 1-benzyl-N-1,2,4-thiadiazol-5-yl-1H-indazole-5-sulfonamide] | 6 | 3030 | 39 | 856 |
| O=S(=O)(Nc1ncns1)c1cc2cnn(Cc3ccccc3)c2cc1F [Ex-12, 1-benzyl-6-fluoro-N-(1,2,4-thiadiazol-5-yl)-1H-indazole-5-sulfonamide] | 174 | 495 | 15 | 936 |
| C[C@@H](c1ccccc1)n1ncc2cc(S(=O)(=O)Nc3ncns3)c(F)cc21 [Ex-11, 6-fluoro-1-[(1S)-1-phenylethyl]-N-1,2,4-thiadiazol-5-yl-1H-indazole-5-sulfonamide] | 32 | 343 | 11 | 1480 |
| O=S(=O)(Nc1ncns1)c1ccc2c(cnn2Cc2ccc(Cl)cc2C2=CCNCC2)c1 [Ex-18, 1-[4-chloro-2-(1,2,3,6-tetrahydropyridin-4-yl)benzyl]-N-1,2,4-thiadiazol-5-yl-1H-indazole-5-sulfonamide] | 6 | 5210 | 42 | 781 |
| NC/C=C/c1ccccc1Cn1ncc2cc(S(=O)(=O)Nc3ncns3)c(F)cc21 [Ex-5, (E)-1-(2-(3-aminoprop-1-en-1-yl)benzyl)-6-fluoro-N-(1,2,4-thiadiazol-5-yl)-1H-indazole-5-sulfonamide] | 560 | 54 | 963 | 34 |
| O=S(=O)(Nc1nccs1)c1cc2cnn(Cc3cccc4c3CNCC4)c2cc1F [Ex-2, 6-fluoro-1-((1,2,3,4-tetrahydroisoquinolin-8-yl)methyl)-N-(thiazol-2-yl)-1H-indazole-5-sulfonamide] | 2025 | 20 | 1200 | 25 |
| C[C@H](c1ccccc1)n1ncc2cc(S(=O)(=O)Nc3ncns3)c(F)cc21 [Ex-9, 6-fluoro-1-[(1R)-1-phenylethyl]-N-1,2,4-thiadiazol-5-yl-1H-indazole-5-sulfonamide] | 65 | 410 | 27 | 1040 |
| CN(C)CCNC(=O)c1cccc(-c2ccccc2Cn2ncc3cc(S(=O)(=O)Nc4ncns4)c(F)cc32)c1 [Ex-8, N-[2-(dimethylamino)ethyl]-2′-{[6-fluoro-5-(1,2,4-thiadiazol-5-ylsulfamoyl)-1H-indazol-1-yl]methyl}biphenyl-3-carboxamide] | 27 | 1130 | 39 | 856 |
| NC1CCc2cccc(Cn3ncc4cc(S(=O)(=O)Nc5ncns5)c(F)cc43)c2C1 (single isomer, unassigned) [Ex-13, (R or S)-1-((7-amino-5,6,7,8-tetrahydronaphthalen-1-yl)methyl)-6-fluoro-N-(1,2,4-thiadiazol-5-yl)-1H-indazole-5-sulfonamide] | 2275 | 7 | 5406 | 6 |
| O=S(=O)(Nc1ncns1)c1cc2cnn(Cc3ccccc3-c3cccc4c3CCNC4)c2cc1F [Ex-10, 6-fluoro-1-[2-(1,2,3,4-tetrahydroisoquinolin-5-yl)benzyl]-N-1,2,4-thiadiazol-5-yl-1H-indazole-5-sulfonamide] | 38 | 782 | 30 | 1080 |
| O=S(=O)(Nc1ncns1)c1ccc2c(cnn2Cc2ccc(Cl)cc2-c2cccc3c2CCNC3)c1 [Ex-25, 1-[4-chloro-2-(1,2,3,4-tetrahydroisoquinolin-5-yl)benzyl]-N-1,2,4-thiadiazol-5-yl-1H-indazole-5-sulfonamide] | 10 | 2900 | 23 | 1480 |
| NC/C=C/c1ccccc1Cn1ncc2cc(S(=O)(=O)Nc3ncns3)cc(Cl)c21 [Ex-63, 1-{2-[(1E)-3-aminoprop-1-en-1-yl]benzyl}-7-chloro-N-1,2,4-thiadiazol-5-yl-1H-indazole-5-sulfonamide] | – | – | > 19 | 1720 |
| O=S(=O)(Nc1ncns1)c1cc2cnn(Cc3ccccc3I)c2cc1F [Ex-7, 6-fluoro-1-(2-iodobenzyl)-N-1,2,4-thiadiazol-5-yl-1H-indazole-5-sulfonamide] | – | – | 19 | 340 |
| O=S(=O)(Nc1ncns1)c1ccc2c(cnn2Cc2ccc(Cl)cc2C2=CC3CCC(C2)N3)c1 (centres unmarked) [Ex-21, 1-[2-(8-azabicyclo[3.2.1]oct-2-en-3-yl)-4-chlorobenzyl]-N-1,2,4-thiadiazol-5-yl-1H-indazole-5-sulfonamide] | – | – | 26 | 1260 |
| Cc1cc2c(cnn2[C@H](C)c2cccc3c2CNCC3)cc1S(=O)(=O)Nc1cccc(F)n1 [Ex-60, N-(6-fluoropyridin-2-yl)-6-methyl-1-[(1R)-1-(1,2,3,4-tetrahydroisoquinolin-8-yl)ethyl]-1H-indazole-5-sulfonamide] | 457 | 58 | – | – |
| C[C@H](c1cccc2c1CNCC2)n1cc2cc(S(=O)(=O)Nc3ncc(Cl)s3)c(F)cc2n1 [Ex-55, N-(5-chloro-1,3-thiazol-2-yl)-6-fluoro-2-[(1R)-1-(1,2,3,4-tetrahydro-isoquinolin-8-yl)ethyl]-2H-indazole-5-sulfonamide] | 152 | 111 | – | – |
| Cc1cc2c(cnn2Cc2cccc3c2CC(N)CC3)cc1S(=O)(=O)Nc1nccs1 (centres unmarked) [Ex-62, 1-[(7-amino-5,6,7,8-tetrahydronaphthalen-1-yl)methyl]-6-methyl-N-1,3-thiazol-2-yl-1H-indazole-5-sulfonamide] | 762 | 23 | – | – |
